# Laboratory results published in PubChem BioAssay AID179 (DTP/NCI, 2004).
# pEC50, pIC50: −log10 of the molar value. “And” between values parts separate entries of the source, which are not always exact repeats. Identical values can stand only once. The source made the active and inactive calls.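 How the source made its calls: active means compounds giving half or more protection of infected cells from virus-caused growth loss, again on retest; inactive means the rest.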
# Tested on: CEM cells HIV-1 protection, formazan growth assay
# Test: NCI AIDS Antiviral Assay
# Conditions: for pIC50: measured here: growth of uninfected CEM cells
# Outline: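 Screen of anti-HIV-1 activity in human CEM cells using a formazan-based growth measurement at five drug concentrations. Hits with 50% or greater protection were repeated, and confirmation required reproducible complete protection.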
Structure (SMILES),pEC50,pIC50,outcome
O=[N+]([O-])c1ccc2c(c1)NP(=S)(Oc1ccccc1)N2 (centres undefined),< 3.22,4.09,
CC(=S)N(c1ccccc1)c1ccccc1,< 3.70,3.80,
CSc1nc(-c2ccccc2)c(C#N)c(=O)[nH]1,,,inactive
Clc1cc2nnn(C3CCCO3)c2cc1Cl (centres undefined),< 3.70,3.91,
O=c1[nH]nc(-c2ccccc2)n1-n1cccc1,< 3.70,4.01,
CCC(CCCN)Nc1cc(OC)cc2c(C)ccnc12 (centres undefined),< 3.70,5.13,
O=C1/C(=C\c2ccccc2Cl)CCCC/C1=C\c1ccccc1Cl,< 3.70,3.78,
COP(C)(=O)C(Cc1c[nH]c2ccccc12)NC(=O)OCc1ccccc1 (centres undefined),< 3.70,< 3.70,
CCOC(=O)CC(=O)ON(C)C(C)=O,< 3.60,< 3.60,
CN1Cc2c(N)cccc2C(c2ccccc2)C1 (centres undefined),,,inactive
Nc1ccn(C2OC(COC(=O)c3ccccc3)C(OC(=O)c3ccccc3)C2I)c(=O)n1 (centres undefined),< 3.70,4.45,
CCCCCCC(CC)(C(=O)O)C(=O)O,< 3.36,< 3.36,
Cc1nc2c(ncn2CCO)c(=O)[nH]1,< 3.70,< 3.70,
Cc1ccc(CC(Cc2ccccc2C)C(=O)O)c(C(=O)O)c1 (centres undefined),< 3.70,< 3.70,
C=C=C(C)CN(CC)CC,< 2.80,< 2.80,
CC12CCC3(OCCO3)C(OC(=O)c3ccccc3)=C1CCC21OCCO1 (centres undefined),,,inactive
CSC(=S)N(C)NC(=O)c1cccc(C(=O)NN(C)C(=S)SC)n1,< 3.70,< 3.70,
c1ccc(NNC2=NCCN2)cc1,< 3.70,4.26,
O=[N+]([O-])C(/C=N/Nc1ccccc1)/C=N/Nc1ccccc1,< 4.61,< 4.61,
O=C1Cc2c(-c3ccccc3)cc(-c3ccc4ccccc4c3)nc2-c2ccccc2N1,< 3.70,4.29,
OC(c1ccccc1)c1c(-c2ccccc2)oc(-c2ccccc2)c1C(O)c1ccccc1 (centres undefined),,,inactive
S=C(NCCc1ccccc1)N1CCC(CCCC2CCN(C(=S)NCCc3ccccc3)CC2)CC1,< 3.70,< 3.70,
ClC1=C(Cl)C(Cl)(Cl)c2c3c(c4c(c21)C(Cl)(Cl)C(Cl)=C4Cl)C(Cl)(Cl)C(Cl)=C3Cl,< 5.06,< 5.06,

Structure (SMILES),pEC50,pIC50,outcome
COc1ccc(C2SC(C)C(=O)N2c2nc(-c3nc(-c4ccc(Cl)cc4)cs3)cs2)cc1 (centres undefined),< 3.70,< 4.00,
S=C(Nc1ccc2cn[nH]c2c1)Nc1ccc2cn[nH]c2c1,< 3.51,3.89,
CN(C)c1cc2c3ccccc3ccc2c2ccccc12,< 5.13,< 5.13,
COc1cc(C(SCc2ccccc2)SCc2ccccc2)ccc1O,< 3.70,4.46,
CCN(CC)c1ccc(/C=C2/C[N+](C)(C)C/C(=C/c3ccc(N(CC)CC)cc3)C2=O)cc1,< 5.18,5.19,
N#Cc1cccc2c1Sc1ccccc1N2,< 3.70,4.92,
O=c1cnn(C2OC(CO)C(F)C2F)c(=O)[nH]1 (centres undefined),< 3.44,< 3.44,
OC(CC(O)(C(F)(F)Cl)C(F)(F)Cl)c1ccccc1 (centres undefined),< 3.70,4.35,
Oc1c(C2=NNC(c3ccc(Cl)cc3Cl)C2)ccc2ccccc12 (centres undefined),< 3.70,4.49,
O=[N+]([O-])c1ccc(N/N=C/C(c2ccccc2)c2ccsc2)c([N+](=O)[O-])c1 (centres undefined),< 3.70,4.71,
Cc1cccc(CNc2ncnc3[nH]ncc23)c1,< 3.70,< 3.70,
Cc1nc(Nc2ccc(Cl)cc2Cl)sc1C(=O)Nc1ccccc1,< 3.70,3.93,
NC(=O)c1cc2cc(O)c(O)cc2cn1,< 3.68,4.90,
C=CCc1ccccc1CC1(OCC)OC(=O)c2ccccc21 (centres undefined),< 4.36,< 4.36,
COC1C2CC3C4(CCC5C6(C)CCCC53C(C14)N(C)C6)CC21CCC23C4C=C5C6=C(CCC5(CC42)C3O1)C1(C)CC(C6)CN(C)C1 (centres undefined),6.42,4.73,
NCCSC(C[N+](=O)[O-])c1ccccc1Cl (centres undefined),< 3.70,5.66,
CN(C)N1CCOC1=O,< 3.70,< 3.70,
CCSc1n/c(=C\c2ccco2)c2nnnn12,< 4.30,< 4.30,
O=C(O)CCCCCCCCCC(=O)O,< 3.10,< 3.10,
O=C1C(Cl)C(c2ccccc2Cl)N1n1cnc2ccccc2c1=O (centres undefined),< 4.84,< 4.84,
Cc1ccc(/C=N/Nc2ncccn2)s1,< 3.70,< 3.70,
OC[C@H]1C[C@@H]2Cc3ccccc3N2N1,< 3.70,< 3.70,
COCC(/C=N/N=C(N)N)=N\N=C(N)N,< 4.49,< 4.49,

Structure (SMILES),pEC50,pIC50,outcome
O=C1C(c2ccccc2Cl)[C@H]2CC=C[C@H]2N1O (some centres undefined),,,inactive
Nc1cc(S(N)(=O)=O)ccc1SSc1ccc(S(N)(=O)=O)cc1N,4.67,4.20,
Cc1ccc(OC(=O)N2C/C(=C\c3ccccc3)C(=O)/C(=C/c3ccccc3)C2)cc1,,,inactive
O=C(O)CN1CCNCCN(CC(=O)O)CCN(CC(=O)O)CCNCC1,< 3.70,3.75,
COc1cc(N(CCC#N)CCC#N)ccc1/C(N=Nc1ccc(C)cc1)=N/NC(=O)c1cc(Br)ccc1O,< 3.70,4.90,
COc1c2occc2c(CN)c2ccc(=O)oc12,< 3.50,4.37,
CN(C)C=Nc1cccc2c1NSN2,< 3.70,< 3.70,
CCN(CC)CC(C)(C)C(=O)/C=C/c1ccc(/C=C/C(=O)C(C)(C)CN(CC)CC)cc1,,,inactive
CCOC(=O)c1nc2ccccc2nc1NCc1ccc(OC)cc1,< 3.86,4.15,
CCOC(=O)C1C(=O)CC2c3nc4ccccc4cc3CN2C1=O (centres undefined),< 5.00,< 5.00,
O=[N+]([O-])c1ccc(C2=Nc3ccccc3S(=O)C(c3ccccc3)C2)cc1 (centres undefined),< 5.14,< 5.14,
S=C(Nc1c2c(nc3ccccc13)CCCC2)Nc1c2c(nc3ccccc13)CCCC2,< 3.70,< 3.70,
Cc1cccc(C)c1NC(=O)C(C#N)C1=C(Cl)C(=O)c2ccccc2C1=O (centres undefined),< 4.58,5.06,
CCCCCCCCCCCCCCCCOC1OC(CSSCC2OC(OCCCCCCCCCCCCCCCC)C(O)C(O)C2O)C(O)C(O)C1O (centres undefined),5.28,5.22,
Cc1cccc(N2CC3CC4C=CC3(C2)O4)c1 (centres undefined),< 3.70,< 3.70,
CC(=O)[O-].O=S(=O)(Nc1ncccn1)c1ccc(N=Cc2ccccc2O)cc1.O=S(=O)(Nc1ncccn1)c1ccc(N=Cc2ccccc2O)cc1.[Cu+2],< 3.70,4.42,
O=C(CCn1[nH]c(=O)c(Cl)c(Cl)c1=O)NNC(=O)C[n+]1ccccc1,< 3.23,< 3.23,
COc1ccc(/C=C/c2nc3ccccc3nc2/C=C/c2ccc(OC)c(OC)c2)cc1OC,< 4.00,< 4.00,
O=C(c1c(O)cc(O)cc1O)c1c(-c2ccc(O)cc2)oc2cc(O)c3c(c12)O[C@H](c1ccc(O)cc1)[C@@H](O)C3,4.78,3.86,
COc1ccc(/C(C#N)=C/c2ccc(OC)c(OC)c2)cc1,< 3.70,4.19 and < 4.47,
O=C(CC(=O)N(C(=O)c1ccccc1)c1ccc(Cl)cc1)N/N=C\c1cc(N=Nc2ccccc2Cl)ccc1O,< 4.00,< 4.00,
CCNCCNCC.[O-][Cl+3]([O-])([O-])[O-].[Pd+2].c1ccc(-c2ccccn2)nc1,< 3.70,4.51,
NNC(=O)C1C(O)CCC2CN3CCc4c([nH]c5ccccc45)C3CC21 (centres undefined),,,inactive

Structure (SMILES),pEC50,pIC50,outcome
COc1cc2c(c(O)c1OC)C(O)C1CCC(=O)N1C2c1ccc2c(c1)OCO2 (centres undefined),< 3.70,3.87,
CC1(C)C2CC[C@]3(C)C(C(=O)C=C4[C@@H]5C[C@@](C)(C(=O)O)CC[C@]5(C)CCC43C)[C@@]2(C)CC[C@@H]1OC1OC(C(=O)O)C(O)C(O)C1OC1OC(C(=O)O)C(O)C(O)C1O (some centres undefined) (tested in a mixture with another compound),,,inactive
Cc1cn(CC2=NCC(C)(C)N2)c(=O)[nH]c1=O,< 3.70,4.03,
CC(=O)N1C(OCc2ccccc2)CCN1c1ccccc1 (centres undefined),< 3.70,< 3.70,
Cc1ccc(/C(O)=C/c2nc3ccccc3[nH]c2=O)c(C)c1,< 3.70,4.45,
O=C1OC(c2cccc(C(F)(F)F)c2)(c2cccc(C(F)(F)F)c2)c2ccc3ccccc3c21,,,inactive
O=C(NC(=O)c1ccccc1[N+](=O)[O-])Nc1ccc(Oc2ncc(Cl)cn2)c(C(F)(F)F)c1,,,inactive
COc1ccc(NC(=S)N/N=C(\c2ccccc2)c2ccccn2)cc1,< 6.70,7.04,
O=C1C2C(C(=O)N1c1ccccc1)C1([N+](=O)[O-])C=C3c4ccccc4N(C(=O)c4ccccc4)C32C2C(=O)N(c3ccccc3)C(=O)C21 (centres undefined),,,inactive
CC1CC2C3CC(F)C4=CC(=O)C=CC4(C)C3(F)C(O)CC2(C)C1(O)C(=O)CO (centres undefined),,,inactive
O=S(=O)(O)C(I)S(=O)(=O)O,< 3.70,< 3.70,
CC(=O)OC1CCN(C)CC1CCl (centres undefined),< 3.70,< 3.70,
CCN(CC)c1cc2c3c(c1)CCCN3CCC2,< 4.00,4.02,
COc1cc(/C=C/C(=O)c2ccc(O)c(OC)c2)ccc1O,< 3.70,4.94,
CO[C@H]1SC[C@H](OC(C)=O)[C@H](OC(C)=O)[C@H]1OC(C)=O,< 3.70,< 3.70,
CN1C(=O)C(C(C)(C)C2SC(=S)N(C)C2=O)SC1=S (centres undefined),< 3.70,< 3.70,
C#CC1(O)CCC2C3CCc4cc(Oc5nc(F)nc(-c6c7cc8ccccc8cc7c(SCC)n6CCC)n5)ccc4C3CCC21C (centres undefined),,,inactive
COC(=O)c1cc(C(=CCCCCCBr)c2cc(Cl)c(OC)c(C(=O)OC)c2)cc(Cl)c1OC,< 5.32,< 5.32,
N/C(=N/O)c1nsnc1/C(N)=N\O,< 3.70,< 3.70,
O=C(/C=C/c1cccc2ccccc12)c1ccccc1Cl,< 4.89,4.96,
